Test results as given in ChEMBL document CHEMBL1201862, “PubChem BioAssay data set” (2004).
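Five concentrations, 48 hours, 96-well plates. At the GI50, growth is halved.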 Activity calls are given as the source filed them. Cut-off read from the data, not from the text of the source: active = GI50 up to about 1.1 µM and inactive = higher.

Key:
Test in all cases: NCI anticancer screen, dose series, 48 h
DU-145 = system: DU-145
ACHN = system: ACHN
HL-60 = system: HL-60
786-0 = system: 786-0
COLO 205 = system: COLO 205
SK-OV-3 = system: SK-OV-3
UO-31 = system: UO-31
UACC-257 = system: UACC-257
T47D = system: T47D
MDA-MB-435 = system: MDA-MB-435
M14 = system: M14
K562 = system: K562
UACC-62 = system: UACC-62
SR = system: SR
MDA-N = system: MDA-N
SNB-19 = system: SNB-19
NCI-H522 = system: NCI-H522
NCI-H226 = system: NCI-H226
OVCAR-4 = system: OVCAR-4
HOP-92 = system: HOP-92

Measured: GI50

c1ccc(C2C3=C(CCCC3)Nc3nnnn32)cc1 (stereo unspecified)
inactive: DU-145 > 100 µM | ACHN 82.4 µM | HL-60 33.1 µM | 786-0 > 100 µM | COLO 205 > 100 µM | SK-OV-3 > 100 µM | UO-31 > 100 µM | UACC-257 > 100 µM | T47D 25.4 µM | MDA-MB-435 72.6 µM | M14 > 100 µM | K562 32.4 µM | UACC-62 56.2 µM | SR > 100 µM | MDA-N 98.4 µM | SNB-19 > 100 µM

O=C(CCCn1ccnc1[N+](=O)[O-])NCCn1ccnc1[N+](=O)[O-]
inactive: DU-145 > 100 µM | ACHN > 100 µM | HL-60 > 100 µM | 786-0 > 100 µM | COLO 205 > 100 µM | SK-OV-3 > 100 µM | UO-31 > 100 µM | UACC-257 > 100 µM | T47D > 100 µM | MDA-MB-435 > 100 µM | M14 > 100 µM | NCI-H522 > 100 µM | K562 > 100 µM | UACC-62 > 100 µM | SR > 100 µM | MDA-N > 100 µM | NCI-H226 > 100 µM | OVCAR-4 > 100 µM | SNB-19 > 100 µM

CC[C@]12C=CCN3CC[C@@]4(c5cc(Br)c(OC)cc5N(C)[C@H]4[C@@](O)(C(=O)N[C@@H](Cc4ccc(O)cc4)C(=O)OC)[C@@H]1O)[C@@H]32
inactive: DU-145 55.1 µM | ACHN 27.6 µM | HL-60 26.7 µM | 786-0 49.9 µM | COLO 205 18.6 µM | SK-OV-3 74.5 µM | UO-31 27.2 µM | UACC-257 16.3 µM | T47D 57.7 µM | MDA-MB-435 16.4 µM | M14 28 µM | NCI-H522 17.7 µM | K562 43 µM | UACC-62 17.6 µM | SR 13.8 µM | MDA-N 20 µM | OVCAR-4 14.7 µM | SNB-19 > 100 µM

Cc1c(O)c(=O)ccn1CCc1ccc(O)cc1
active: UACC-62 0.615 µM
inactive: DU-145 24.9 µM | ACHN 13.9 µM | HL-60 33.5 µM | 786-0 6.32 µM | COLO 205 31.5 µM | SK-OV-3 24.8 µM | HOP-92 24.3 µM | UACC-257 25.5 µM | T47D 45.6 µM | MDA-MB-435 42.2 µM | M14 17.3 µM | K562 32.7 µM | SR 34.6 µM | MDA-N 11.9 µM | OVCAR-4 22 µM | SNB-19 15.6 µM

CN(C)CC/C=C1\c2ccccc2Sc2ccc(Cl)cc21
inactive: DU-145 15.4 µM | ACHN 15.8 µM | HL-60 11.2 µM | 786-0 12.2 µM | COLO 205 14.2 µM | SK-OV-3 16.3 µM | UO-31 9.4 µM | HOP-92 4.75 µM | UACC-257 6.87 µM | T47D 16.3 µM | MDA-MB-435 10.3 µM | M14 3.01 µM | NCI-H522 12.6 µM | K562 5.16 µM | UACC-62 13.6 µM | MDA-N 12.7 µM | NCI-H226 18.6 µM | OVCAR-4 12.6 µM | SNB-19 15.5 µM

NNC(=O)C1(NC(=O)c2ccccc2)C(c2ccccc2)C(c2ccccc2)=NN1c1ccccc1 (stereo unspecified)
inactive: DU-145 72.6 µM | ACHN 35.5 µM | 786-0 50.5 µM | COLO 205 45.5 µM | SK-OV-3 29.9 µM | UO-31 27.8 µM | UACC-257 43.3 µM | T47D 23.1 µM | MDA-MB-435 29.2 µM | M14 22.8 µM | NCI-H522 55.3 µM | K562 27.2 µM | UACC-62 23.1 µM | SR 18.2 µM | MDA-N 24.2 µM | NCI-H226 > 100 µM | OVCAR-4 12.8 µM | SNB-19 66.2 µM

CCOC(=O)C1(Cc2ccc3c(c2)CCC3)Cc2cc3c(cc2C1=O)CCC3 (stereo unspecified)
inactive: DU-145 75.5 µM | ACHN > 69.8 µM | HL-60 2.84 µM | 786-0 > 100 µM | COLO 205 41.7 µM | SK-OV-3 > 100 µM | UO-31 42.3 µM | UACC-257 31.3 µM | T47D 14.2 µM | MDA-MB-435 36.3 µM | M14 > 57.4 µM | NCI-H522 47.8 µM | K562 9.95 µM | UACC-62 > 100 µM | SR 44.3 µM | MDA-N 41.4 µM | NCI-H226 > 83 µM | OVCAR-4 52 µM | SNB-19 > 100 µM

COc1ccc(CCn2ccc(=O)c(O)c2C)cc1OC
inactive: DU-145 12.4 µM | ACHN 5.26 µM | HL-60 32.2 µM | 786-0 5 µM | COLO 205 26.7 µM | SK-OV-3 21.2 µM | HOP-92 20.4 µM | UACC-257 6.18 µM | T47D 29.9 µM | MDA-MB-435 41.6 µM | M14 12.2 µM | K562 37.1 µM | SR 28.4 µM | MDA-N 19.2 µM | SNB-19 16 µM

O=C(O)c1c2c(c(O)c3c1CN(C1CCCCC1)CO3)OCN(C1CCCCC1)C2
inactive: DU-145 > 100 µM | ACHN > 100 µM | 786-0 68.4 µM | COLO 205 > 100 µM | SK-OV-3 > 100 µM | UO-31 > 100 µM | HOP-92 > 100 µM | UACC-257 > 100 µM | T47D > 100 µM | MDA-MB-435 58.1 µM | M14 > 100 µM | NCI-H522 29.1 µM | K562 31.3 µM | UACC-62 > 100 µM | SR 27.2 µM | MDA-N > 100 µM | OVCAR-4 > 100 µM | SNB-19 > 100 µM

CC1(C)C2C=CC1(C)C1(CC2)OCCO1 (stereo unspecified)
inactive: DU-145 > 100 µM | ACHN > 100 µM | HL-60 > 100 µM | 786-0 > 100 µM | COLO 205 > 100 µM | SK-OV-3 > 100 µM | UO-31 > 100 µM | UACC-257 > 100 µM | T47D > 100 µM | MDA-MB-435 > 100 µM | M14 > 100 µM | K562 > 100 µM | UACC-62 > 100 µM | SR > 100 µM | MDA-N > 100 µM | NCI-H226 > 100 µM | OVCAR-4 > 100 µM | SNB-19 > 100 µM

O=c1cc(NNCc2ccccc2)[nH]c(=O)[nH]1
active: T47D 0.678 µM
inactive: DU-145 > 100 µM | ACHN > 100 µM | HL-60 > 100 µM | 786-0 > 100 µM | COLO 205 > 100 µM | UO-31 74 µM | HOP-92 4.68 µM | UACC-257 > 100 µM | MDA-MB-435 > 100 µM | M14 > 100 µM | K562 > 100 µM | SR > 100 µM | MDA-N > 100 µM | NCI-H226 > 100 µM | OVCAR-4 > 100 µM | SNB-19 > 100 µM

O=C(O)c1nc2ccc(C(F)(F)F)cc2nc1NCc1ccc(Cl)c(Cl)c1
inactive: DU-145 17 µM | ACHN 15.4 µM | 786-0 15.9 µM | COLO 205 20.1 µM | SK-OV-3 19.4 µM | UO-31 13.4 µM | HOP-92 15.7 µM | UACC-257 21.2 µM | T47D 16.6 µM | MDA-MB-435 15.6 µM | M14 17.8 µM | K562 16.9 µM | UACC-62 17.1 µM | SR 15.6 µM | MDA-N 19.6 µM | NCI-H226 17.3 µM | OVCAR-4 18.5 µM | SNB-19 12.6 µM

O=Cc1ccc(OCc2cccc(COc3ccc(/C=N\Nc4ccc([N+](=O)[O-])cc4[N+](=O)[O-])cc3)n2)cc1
inactive: DU-145 > 100 µM | ACHN > 100 µM | HL-60 > 100 µM | 786-0 > 100 µM | COLO 205 > 100 µM | UO-31 > 100 µM | UACC-257 > 100 µM | T47D > 100 µM | MDA-MB-435 > 100 µM | M14 > 100 µM | NCI-H522 > 100 µM | K562 > 100 µM | UACC-62 > 100 µM | SR 22.1 µM | MDA-N > 100 µM | NCI-H226 > 100 µM | OVCAR-4 > 100 µM | SNB-19 > 100 µM

COc1ccc(C2Oc3c(cccc3OC)C=C2[N+](=O)[O-])cc1 (stereo unspecified)
inactive: DU-145 4.38 µM | ACHN 1.74 µM | HL-60 2.17 µM | 786-0 2.31 µM | COLO 205 2.51 µM | SK-OV-3 4.26 µM | UO-31 1.71 µM | UACC-257 2.96 µM | T47D 3.75 µM | MDA-MB-435 2.12 µM | NCI-H522 1.32 µM | UACC-62 1.91 µM | SR 2 µM | MDA-N 2 µM | OVCAR-4 2.96 µM | SNB-19 3.99 µM
active: M14 0.743 µM | K562 0.668 µM

CCOC(=O)C1(C(=O)OCC)OC(C)=NC1(C(=O)OC)C(=O)OC
inactive: DU-145 > 100 µM | ACHN > 100 µM | HL-60 1.15 µM | 786-0 > 100 µM | COLO 205 > 100 µM | SK-OV-3 > 100 µM | UO-31 > 100 µM | UACC-257 > 100 µM | T47D > 100 µM | MDA-MB-435 > 100 µM | M14 > 100 µM | K562 > 100 µM | UACC-62 > 100 µM | SR > 27.7 µM | MDA-N > 100 µM | NCI-H226 > 62.5 µM | OVCAR-4 > 100 µM | SNB-19 > 100 µM
